# Experimental data from US20240285644A1, “ASSESSING AND TREATING PROSTATE CANCER” (Mayo Foundation for Medical Education and Research, priority 2021, published 2024).
# Entries after “also recorded” stand apart in the source; their conditions may differ.
# Columns and labels:
# [1] = tested on: LNCaP cells; assay: Quantitative colony forming assay, cell survival of antiandrogen-sensitive LNCaP cells; format: cell-based; conditions: for cell survival of LNCaP cells: increasing concentrations of recombinant human NRG-1, vehicle versus enzalutamide (3 μM)
# Excerpt: It was next examined whether NRG-1 polypeptides differentially affect antiandrogen-sensitive and resistant prostate cancer cells. Antiandrogen-sensitive LNCaP prostate cancer cells express androgen receptor, whereas antiandrogen-resistant Du145 and PC3 cells express very limited androgen receptor (FIG. 3A).
# The paradoxical toxic and salutary effects of NRG-1 polypeptides on antiandrogen-sensitive versus antiandrogen-resistant cells mirrors the outcomes in CSPC and CRPC patients, respectively.
# LNCaP cells were then transfected with control shRNA versus shRNA targeting HER3 (FIG. 8A). Knockdown of HER3 rescued LNCaP cells from NRG-1- and enzalutamide-induced cell death (FIG. 7D and FIG. 8B). Relatedly, knockdown of HER2—but not HER4—reduces or eliminates Du145 cell benefit from NRG-1 polypeptide treatment (FIG. 8C-8D). To further confirm that HER2/HER3 heterodimerization can mediate a pro-survival response to NRG-1 polypeptides in CRPC, LNCaP cells were treated with lapatinib that induces HER2/HER3 heterodimerization.
# [2] = tested on: NRG-1; assay: Blood levels of NRG-1 in patients with cancer before and during PARP inhibitor treatment; format: in vivo, human; conditions: two patients with cancer (001 niraparib, 002 olaparib), Day 0 versus Days 7, 14
# Method: Blood levels of NRG-1 of five patients with cancer were measured prior to and during treatment with PARP inhibitors.
compound,measurement,setting,value
CNC(=O)c1ccc(N2C(=S)N(c3ccc(C#N)c(C(F)(F)F)c3)C(=O)C2(C)C)cc1F [enzalutamide],cell survival of LNCaP cells,[1],function in an additive manner
same,cell survival of LNCaP cells,[1]; listed as Enz,induced death of LNCaP cells in an additive fashion
CS(=O)(=O)CCNCc1ccc(-c2ccc3ncnc(Nc4ccc(OCc5cccc(F)c5)c(Cl)c4)c3c2)o1 [lapatinib],effect of pre-treatment on NRG-1- and antiandrogen-mediated death of LNCaP cells,"[1]; pre-treatment with lapatinib, then NRG-1 and enzalutamide",rescues LNCaP cells from antiandrogen enzalutamide and NRG-1; also recorded: abolished NRG-1- and antiandrogen-mediated cell death
NC(=O)c1cccc2cn(-c3ccc([C@@H]4CCCNC4)cc3)nc12 [niraparib],blood levels of NRG-1,[2],reduced over the course of treatment
O=C(c1cc(Cc2n[nH]c(=O)c3ccccc23)ccc1F)N1CCN(C(=O)C2CC2)CC1 [olaparib],blood levels of NRG-1,[2],reduced over the course of treatment
same,blood levels of NRG-1,[2]; listed as Olaparib,reduced
